Patent publication US9062066B2, “Anti-inflammatory compound having inhibitory activity against multiple tyrosine kinases and pharmaceutical composition containing same” (KOREA INSTITUTE OF SCIENCE AND TECHNOLOGY, priority 2010, dated 2015)

Key:
Format in all cases: biochemical
[1] = target: c-Src tyrosine kinase (Homo sapiens (Human), UniProt P12931); assay: in vitro c-Src tyrosine kinase inhibition (32P-ATP, poly(D4Y)n substrate); settings: 1 uM compound; read-out: % inhibition against c-Src
[2] = target: Hck tyrosine kinase (Homo sapiens (Human), UniProt P08631); assay: in vitro Hck tyrosine kinase inhibition; settings: 1 uM compound; read-out: % inhibition against Hck
[3] = target: Fgr tyrosine kinase (Homo sapiens (Human), UniProt P09769); assay: in vitro Fgr tyrosine kinase inhibition; settings: 1 uM compound; read-out: % inhibition against Fgr
[4] = target: Lyn tyrosine kinase (Homo sapiens (Human), UniProt P07948); assay: in vitro Lyn tyrosine kinase inhibition; settings: 1 uM compound; read-out: % inhibition against Lyn
[5] = target: DDR1 tyrosine kinase (Homo sapiens (Human), UniProt Q08345); assay: in vitro DDR1 tyrosine kinase inhibition (GST-fused kinase domain); settings: 1 uM compound; read-out: % inhibition against DDR1
[6] = target: DDR2 tyrosine kinase (Homo sapiens (Human), UniProt Q16832); assay: in vitro DDR2 tyrosine kinase inhibition (GST-fused kinase domain); settings: 1 uM compound; read-out: % inhibition against DDR2
Chain of DDR2 tyrosine kinase (Q16832 563-849): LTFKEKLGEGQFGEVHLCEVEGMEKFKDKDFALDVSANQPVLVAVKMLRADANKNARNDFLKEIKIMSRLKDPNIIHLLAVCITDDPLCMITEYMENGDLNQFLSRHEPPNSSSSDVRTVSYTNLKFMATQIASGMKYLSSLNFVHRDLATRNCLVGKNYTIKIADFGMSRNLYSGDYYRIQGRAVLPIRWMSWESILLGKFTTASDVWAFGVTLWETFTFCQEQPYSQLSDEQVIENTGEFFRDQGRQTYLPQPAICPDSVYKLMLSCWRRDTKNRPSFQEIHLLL

Chain of Lyn tyrosine kinase (P07948 whole entry, the tested form may be a part): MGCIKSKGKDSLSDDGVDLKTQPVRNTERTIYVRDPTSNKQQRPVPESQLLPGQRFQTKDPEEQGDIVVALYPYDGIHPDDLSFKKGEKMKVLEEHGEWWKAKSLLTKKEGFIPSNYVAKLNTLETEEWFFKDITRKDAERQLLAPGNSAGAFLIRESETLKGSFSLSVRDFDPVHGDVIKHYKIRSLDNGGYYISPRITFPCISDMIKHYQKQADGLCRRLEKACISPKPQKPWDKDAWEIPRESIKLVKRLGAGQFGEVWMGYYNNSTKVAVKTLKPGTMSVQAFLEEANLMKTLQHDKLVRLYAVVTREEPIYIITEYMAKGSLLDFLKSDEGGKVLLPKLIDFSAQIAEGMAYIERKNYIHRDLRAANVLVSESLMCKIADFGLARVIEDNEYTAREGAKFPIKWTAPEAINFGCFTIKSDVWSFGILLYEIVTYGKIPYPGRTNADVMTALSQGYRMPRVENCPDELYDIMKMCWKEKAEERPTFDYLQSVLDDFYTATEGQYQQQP
Chain of DDR1 tyrosine kinase (Q08345 610-905): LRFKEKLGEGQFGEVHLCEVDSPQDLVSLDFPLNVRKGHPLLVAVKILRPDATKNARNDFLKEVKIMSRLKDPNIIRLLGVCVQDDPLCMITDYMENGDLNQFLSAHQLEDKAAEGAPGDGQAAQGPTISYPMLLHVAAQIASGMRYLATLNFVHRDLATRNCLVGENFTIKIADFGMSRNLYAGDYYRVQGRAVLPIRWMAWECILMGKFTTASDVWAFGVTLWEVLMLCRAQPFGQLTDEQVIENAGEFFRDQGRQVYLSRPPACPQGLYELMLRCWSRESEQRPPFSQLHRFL
Chain of Fgr tyrosine kinase (P09769 whole entry): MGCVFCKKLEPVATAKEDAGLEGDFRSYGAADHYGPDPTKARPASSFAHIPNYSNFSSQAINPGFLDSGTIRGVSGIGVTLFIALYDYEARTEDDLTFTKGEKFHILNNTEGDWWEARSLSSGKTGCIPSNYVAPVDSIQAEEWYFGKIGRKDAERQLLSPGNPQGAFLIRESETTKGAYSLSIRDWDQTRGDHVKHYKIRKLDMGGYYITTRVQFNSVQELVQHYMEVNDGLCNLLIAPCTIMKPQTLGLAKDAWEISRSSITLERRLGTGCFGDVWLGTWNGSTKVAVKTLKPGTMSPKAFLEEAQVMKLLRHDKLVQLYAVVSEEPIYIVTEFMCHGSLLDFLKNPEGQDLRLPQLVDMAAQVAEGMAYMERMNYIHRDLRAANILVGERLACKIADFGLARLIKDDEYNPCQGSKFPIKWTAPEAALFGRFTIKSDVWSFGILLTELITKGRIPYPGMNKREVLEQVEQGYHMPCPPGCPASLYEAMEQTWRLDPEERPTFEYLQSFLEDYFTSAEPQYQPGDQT
Chain of c-Src tyrosine kinase (P12931 whole entry, looked up): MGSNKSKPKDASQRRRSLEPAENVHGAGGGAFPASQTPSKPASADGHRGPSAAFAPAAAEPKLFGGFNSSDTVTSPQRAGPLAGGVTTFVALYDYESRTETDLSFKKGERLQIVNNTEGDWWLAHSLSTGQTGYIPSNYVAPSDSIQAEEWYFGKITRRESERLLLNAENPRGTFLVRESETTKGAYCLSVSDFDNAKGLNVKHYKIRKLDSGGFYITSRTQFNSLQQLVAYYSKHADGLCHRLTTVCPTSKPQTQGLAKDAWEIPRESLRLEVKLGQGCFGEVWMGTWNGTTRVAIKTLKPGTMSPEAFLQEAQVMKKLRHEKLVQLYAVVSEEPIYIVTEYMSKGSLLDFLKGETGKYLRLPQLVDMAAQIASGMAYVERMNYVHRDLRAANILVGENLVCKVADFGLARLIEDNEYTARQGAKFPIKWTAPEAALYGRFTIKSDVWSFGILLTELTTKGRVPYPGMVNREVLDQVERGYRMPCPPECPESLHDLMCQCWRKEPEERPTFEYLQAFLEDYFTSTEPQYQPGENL
Chain of Hck tyrosine kinase (P08631 whole entry): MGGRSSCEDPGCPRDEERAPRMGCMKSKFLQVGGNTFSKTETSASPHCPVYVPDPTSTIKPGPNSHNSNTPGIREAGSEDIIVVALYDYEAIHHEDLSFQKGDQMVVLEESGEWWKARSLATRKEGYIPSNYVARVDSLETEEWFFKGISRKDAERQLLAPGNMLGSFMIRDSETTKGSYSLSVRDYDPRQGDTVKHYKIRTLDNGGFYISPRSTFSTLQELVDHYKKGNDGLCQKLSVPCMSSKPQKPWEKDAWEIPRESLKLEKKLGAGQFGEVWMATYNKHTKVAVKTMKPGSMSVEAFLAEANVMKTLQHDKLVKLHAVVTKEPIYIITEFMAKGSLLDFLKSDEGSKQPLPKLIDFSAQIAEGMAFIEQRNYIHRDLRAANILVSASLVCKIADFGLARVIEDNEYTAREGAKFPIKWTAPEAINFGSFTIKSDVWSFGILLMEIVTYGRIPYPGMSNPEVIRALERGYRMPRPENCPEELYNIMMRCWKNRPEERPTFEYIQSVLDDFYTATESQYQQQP

Row | SMILES | inhibition at 1 µM [1] [%] | inhibition at 1 µM [2] [%] | inhibition at 1 µM [3] [%] | inhibition at 1 µM [4] [%] | inhibition at 1 µM [5] [%] | inhibition at 1 µM [6] [%]
1 | N#Cc1ccc(-c2cc3ncnc(Nc4cccc(O)c4)c3s2)cc1 [LCB 03-0013, 4-(4-(3-hydroxyphenylamino)thieno[3,2-d]pyrimidin-6-yl)benzonitrile] | > 70 | > 70 | > 60 | > 70 | > 60 | > 60
2 | COc1cccc(Nc2ncnc3cc(-c4ccc(O)cc4)sc23)c1 [LCB 03-0016, 4-(4-(3-methoxyphenylamino)thieno[3,2-d]pyrimidin-6-yl)phenol] | > 70 | > 70 | > 70 | > 70 | > 20 | > 20
3 | Oc1cccc(Nc2ncnc3cc(-c4ccc(OCCN5CCOCC5)cc4)sc23)c1 [LCB 03-0020, 3-(6-(4-(2-morpholinoethoxy)phenyl)thieno[3,2-d]pyrimidin-4-ylamino)phenol] | > 70 | > 70 | > 70 | > 70 | > 60 | > 60
4 | COc1cccc(Nc2ncnc3cc(-c4ccc(OCCc5ccccn5)cc4)sc23)c1 [LCB 03-0022, N-(3-methoxyphenyl)-6-(4-(2-(pyridin-2-yl)ethoxy)phenyl)thieno[3,2-d]pyrimidin-4-amine] | > 60 | > 60 | > 60 | > 60 | > 10 | > 10
5 | COc1cccc(Nc2ncnc3cc(-c4ccco4)sc23)c1 [LCB 03-0023, (6-Furan-2-yl-thieno[3,2-d]pyrimidin-4-yl)-(3-methoxyphenyl)-amine] | > 40 | > 40 | > 40 | > 40 | > 60 | > 60
6 | COc1cccc(Nc2ncnc3cc(-c4ccoc4)sc23)c1 [LCB 03-0024, (6-Furan-3-yl-thieno[3,2-d]pyrimidin-4-yl)-(3-methoxyphenyl)-amine] | > 30 | > 30 | > 30 | > 30 | > 70 | > 70
7 | COc1cccc(Nc2ncnc3cc(-c4ccsc4)sc23)c1 [LCB 03-0028, (3-Methoxyphenyl)-(6-thiophene-3-yl-thieno[3,2-d]pyrimidin-4-yl)-amine] | > 30 | > 30 | > 30 | > 30 | > 50 | > 50
8 | COc1cccc(Nc2ncnc3cc(-c4ccc(OCCN5CCNCC5)cc4)sc23)c1 [LCB 03-0029, N-(3-methoxyphenyl)-6-(4-(2-(piperazin-1-yl)ethoxy)phenyl)thieno[3,2-d]pyrimidin-4-amine] | > 60 | > 60 | > 60 | > 60 | > 20 | > 20
9 | Oc1cccc(Nc2ncnc3cc(-c4ccsc4)sc23)c1 [LCB 03-0031, 3-(6-Thiophene-3-yl-thieno[3,2-d]pyrimidin-4-ylamino)-phenol] | > 40 | > 40 | > 40 | > 30 | > 70 | > 70
10 | Oc1cccc(Nc2ncnc3cc(-c4ccc(CCN5CCCCC5)cc4)sc23)c1 [LCB 03-0044] | > 30 | > 30 | > 30 | > 30 | > 80 | > 80
11 | CN1CCN(CCc2ccc(-c3cc4ncnc(Nc5cccc(O)c5)c4s3)cc2)CC1 [LCB 03-0045] | > 30 | > 20 | > 20 | > 30 | > 80 | > 80
12 | Oc1cccc(Nc2ncnc3cc(-c4ccc(CCN5CCOCC5)cc4)sc23)c1 [LCB 03-0046, 3-(6-(4-(2-morpholinoethyl)phenyl)thieno[3,2-d]pyrimidin-4-ylamino)phenol] | > 30 | > 30 | > 30 | > 30 | > 80 | > 80
13 | CCN(CC)C(=O)Cc1ccc(-c2cc3ncnc(Nc4cccc(O)c4)c3s2)cc1 [LCB 03-0050, N,N-diethyl-2-(4-(4-(3-hydroxyphenylamino)thieno[3,2-d]pyrimidin-6-yl)phenyl)acetamide] | > 40 | > 40 | > 40 | > 40 | > 80 | > 80
14 | CN1CCN(C(=O)c2ccc(-c3cc4ncnc(Nc5cccc(O)c5)c4s3)cc2)CC1 [LCB 03-0052, (4-(4-(3-hydroxyphenylamino)thieno[3,2-d]pyrimidin-6-yl)phenyl)(4-methylpiperazin-1-yl)methanone] | > 60 | > 60 | > 50 | > 60 | > 80 | > 80
15 | COC(=O)C1CCCN1Cc1ccc(-c2cc3ncnc(Nc4cccc(O)c4)c3s2)cc1 (stereo not drawn) [LCB 03-0056, methyl 1-(4-(4-(3-hydroxyphenylamino)thieno[3,2-d]pyrimidin-6-yl)benzyl)pyrrolidine-2-carboxylate] | > 50 | > 50 | > 50 | > 50 | > 80 | > 80
16 | NC(=O)C1CCCN1Cc1ccc(-c2cc3ncnc(Nc4cccc(O)c4)c3s2)cc1 (stereo not drawn) [LCB 03-0068, 1-(4-(4-(3-hydroxyphenylamino)thieno[3,2-d]pyrimidin-6-yl)benzyl)pyrrolidine-2-carboxamide] | – | – | – | – | > 80 | > 80
17 | O=C(O)C1CCCN1Cc1ccc(-c2cc3ncnc(Nc4cccc(O)c4)c3s2)cc1 (stereo not drawn) [LCB 03-0069, 1-(4-(4-(3-hydroxyphenylamino)thieno[3,2-d]pyrimidin-6-yl)benzyl)pyrrolidine-2-carboxylic acid] | – | – | – | – | > 50 | > 50

The next lines start with the values.

Row | inhibition at 1 µM [1] [%] | inhibition at 1 µM [2] [%] | inhibition at 1 µM [3] [%] | inhibition at 1 µM [4] [%] | inhibition at 1 µM [5] [%] | inhibition at 1 µM [6] [%] | SMILES
18 | > 60 | > 60 | > 60 | > 60 | > 70 | > 70 | Oc1cccc(Nc2ncnc3cc(-c4ccc(Cl)cc4)sc23)c1 [LCB 03-0019, 3-(6-(4-chlorophenyl)thieno[3,2-d]pyrimidin-4-ylamino)phenol]
19 | > 50 | > 60 | > 60 | > 60 | > 30 | > 30 | COc1cccc(Nc2ncnc3cc(-c4ccc(OCCc5ccccc5)cc4)sc23)c1 [LCB 03-0021, N-(3-methoxyphenyl)-6-(4-phenethoxyphenyl)thieno[3,2-d]pyrimidin-4-amine]
20 | > 60 | > 60 | > 60 | > 40 | > 20 | > 20 | COc1cccc(Nc2ncnc3cc(-c4ccc(OCCN5CCCC5)cc4)sc23)c1 [LCB 03-0026, N-(3-methoxyphenyl)-6-(4-(2-(pyrrolidin-1-yl)ethoxy)phenyl)thieno[3,2-d]pyrimidin-4-amine]
21 | > 40 | > 40 | > 40 | > 40 | > 70 | > 70 | COc1cccc(Nc2ncnc3cc(-c4cccs4)sc23)c1 [LCB 03-0027, N-(3-methoxyphenyl)-6-(thiophene-2-yl)thieno[3,2-d]pyrimidin-4-amine]
22 | – | – | – | – | > 80 | > 80 | O=C(O)c1cccc(-c2cc3ncnc(Nc4cccc(O)c4)c3s2)c1 [LCB 03-0051, 3-(4-(3-hydroxyphenylamino)thieno[3,2-d]pyrimidin-6-yl)benzoic acid]
23 | > 50 | > 50 | > 50 | > 50 | > 80 | > 80 | CN1CCN(C(=O)c2cccc(-c3cc4ncnc(Nc5cccc(O)c5)c4s3)c2)CC1 [LCB 03-0055, (3-(4-(3-hydroxyphenylamino)thieno[3,2-d]pyrimidin-6-yl)phenyl)(4-methylpiperazin-1-yl)methanone]
24 | > 30 | > 30 | > 30 | > 30 | > 80 | > 80 | CC(CO)NC(=O)c1ccc(-c2cc3ncnc(Nc4cccc(O)c4)c3s2)cc1 (stereo not drawn) [LCB 03-0074, 4-(4-(3-hydroxyphenylamino)thieno[3,2-d]pyrimidin-6-yl)-N-(1-hydroxypropan-2-yl)benzamide]
25 | > 30 | > 30 | > 30 | > 30 | > 80 | > 80 | CC(NC(=O)c1ccc(-c2cc3ncnc(Nc4cccc(O)c4)c3s2)cc1)C(=O)O (stereo not drawn) [LCB 03-0075, 2-(4-(4-(3-hydroxyphenylamino)thieno[3,2-d]pyrimidin-6-yl)benzamido)propanoic acid]
26 | > 30 | > 30 | > 30 | > 30 | > 70 | > 70 | CN1CCN(c2nc3ncnc(Nc4cccc(O)c4)c3s2)CC1 [LCB 03-0100, 3-(2-(4-methylpiperazin-1-yl)thiazolo[4,5-d]pyrimidin-7-ylamino)phenol]
